According to patent US4421912A, “Cephalosporin derivatives” (Takeda Chemical Industries, Ltd., priority 1973, dated 1983):
≈ marks a conversion by molar mass, not a printed value. Read-outs that look alike come from different tables or passages of the source.

Key:
[1] = test system: P. morganii Eb53; experiment: Antibacterial spectra, agar dilution method; assay type: cell-based; conditions: Morganella morganii
From the text: (§1) (mcg/ml, agar dilution method)
(§2) (mcg./ml., agar dilution method)

[2] = test system: K. pneumoniae DT; experiment: Antibacterial spectra, agar dilution method; assay type: cell-based; conditions: Klebsiella pneumoniae, Table 11
[3] = test system: E. coli T-7; experiment: Antibacterial spectra, agar dilution method; assay type: cell-based; conditions: Escherichia coli
From the text: (§3) |(mcg./ml., agar dilution method)

[4] = test system: P. vulgaris IFO 3988; experiment: Antibacterial spectra, agar dilution method; assay type: cell-based; conditions: Proteus vulgaris
From the text: as §3

[5] = test system: S. aureus 209P; experiment: Antibacterial spectra, agar dilution method; assay type: cell-based; conditions: Staphylococcus aureus, 209P, read-out: Antibacterial spectra, S. aureus 209P, Table 11
From the text: (§4) (mcg/ml., agar dilution method)
as §4, §1, §2

[6] = test system: E. coli 0-111; experiment: Antibacterial spectra, agar dilution method; assay type: cell-based; conditions: Escherichia coli, 0111, E. coli 0-111, Table 11
From the text: as §4, §4, §1, §2

[7] = test system: S. aureus 1840; experiment: Antibacterial spectra, agar dilution method; assay type: cell-based
From the text: as §4, §4, §1, §2

[8] = test system: E. coli NIHJ JC-2; experiment: Antibacterial spectra, agar dilution method; assay type: cell-based; conditions: Escherichia coli
From the text: as §4, §4, §1, §2

[9] = test system: Escherichia coli 0111; experiment: Protective Effect on Infected Mice; assay type: in vivo; conditions: Escherichia coli, 0111, sc, 168 h, Table 12; male ICR/SLC mice; i.p. E. coli 0111; single subcutaneous dose immediately after challenge; 7 days; read-out: Protective Effect (ED50) on Infected Mice
From the text: Protective Effect (ED50 * , mg/kg) on Infected Mice
*Test animals: male mice (ICR/SLC) 5 mice per group per single dose
Infection: intraperitoneally with Escherichia coli 0111
Administration: a single subcutaneous dose immediately after challenge
Observation period: 7 days
*Test animals: male mice (ICR/SLC) 5 mice per group single dose

[10] = P. morganii Eb53, agar dilution method, Table 11, read-out: Antibacterial spectra
[11] = T7, E. coli T-7, agar dilution method, Table 11, read-out: Antibacterial spectra
[12] = IFO3988, P. vulgaris IFO 3988, agar dilution method, Table 11, read-out: Antibacterial spectra
[13] = Staphylococcus aureus, 1840, read-out: Antibacterial spectra, S. aureus 1840, Table 11
[14] = NIHJJC2, read-out: Antibacterial spectra, E. coli NIHJ JC-2, Table 11
[15] = EB53, read-out: Antibacterial spectra
[16] = T7, read-out: Antibacterial spectra
[17] = Staphylococcus aureus, S. aureus 1840, Table 11, read-out: Antibacterial spectra
[18] = NIHJJC2, E. coli NIHJ JC-2, Table 11, read-out: Antibacterial spectra

SMILES	MIC [1, 10]	MIC [2]	MIC [3, 11]	MIC [4, 12]	MIC [5]	MIC [6]	MIC [7, 13]	MIC [8, 14]	MIC [1, 15]	MIC [3, 16]	MIC [7, 17]	MIC ([4]; IFO3988, read-out: Antibacterial spectra)	ED50 [9]	MIC [8, 18]
Nc1nc(CC(=O)NC2C(=O)N3C(C(=O)O)=C(CSc4nnc(N)s4)CSC23)cs1 (centres unmarked) [Compound 4]	50 µg/mL (≈ 103 µM)	0.2 µg/mL (≈ 0.412 µM)	100 µg/mL (≈ 206 µM)	0.2 µg/mL (≈ 0.412 µM)	0.2 µg/mL (≈ 0.412 µM)	0.1 µg/mL (≈ 0.206 µM)	0.78 µg/mL (≈ 1.61 µM)	0.78 µg/mL (≈ 1.61 µM)	–	–	–	–	–	–
Nc1nc(CC(=O)NC2C(=O)N3C(C(=O)[O-])=C(CSc4nnc(SCCO)s4)CS[C@H]23)cs1.[Na+] (some centres unmarked) [Compound 6, sodium 7-[2-(2-aminothiazol-4-yl)acetamido]-3-[2-(2-hydroxyethylthio)1,3,4-thiadiazol-5-yl)thiomethyl-3-cephem-4-carboxylate]	–	≤ 0.2 µg/mL	–	0.39 µg/mL	≤ 0.2 µg/mL	≤ 0.2 µg/mL	0.78 µg/mL	0.78 µg/mL	6.25 µg/mL	12.5 µg/mL	–	–	–	–
CN(C)CC(=O)Nc1nnc(SCC2=C(C(=O)O)N3C(=O)C(NC(=O)Cc4csc(N)n4)C3SC2)s1 (centres unmarked) [Compound 7]	–	≤ 0.2 µg/mL	25 µg/mL (≈ 43.8 µM)	0.39 µg/mL (≈ 0.683 µM)	0.78 µg/mL (≈ 1.37 µM)	≤ 0.2 µg/mL	–	0.78 µg/mL (≈ 1.37 µM)	12.5 µg/mL (≈ 21.9 µM)	–	3.13 µg/mL (≈ 5.48 µM)	–	–	–
CN(C)C(=O)Cc1nnc(SCC2=C(C(=O)[O-])N3C(=O)C(NC(=O)Cc4csc(N)n4)[C@H]3SC2)s1.[Na+] (some centres unmarked) [Compound 8, sodium 7-[2-(2-aminothiazol-4-yl)acetamido]-3-[2-(N,N-dimethylcarbamoylmethyl)-1,3,4-thiadiazol-5-yl]thiomethyl-3-cephem-4-carboxylate]	–	≤ 0.2 µg/mL	–	–	0.39 µg/mL	≤ 0.2 µg/mL	0.78 µg/mL	0.78 µg/mL	< 0.2 µg/mL	12.5 µg/mL	–	0.39 µg/mL	–	–
CC(=O)OCCSc1nnc(SCC2=C(C(=O)[O-])N3C(=O)C(NC(=O)Cc4csc(N)n4)[C@H]3SC2)s1.[Na+] (some centres unmarked) [Compound 11, sodium 7-[2-(2-aminothiazol-4-yl)acetamido]-3-[2-(2-acetoxyethylthio)-1,3,4-thiadiazol-5-yl]thiomethyl-3-cephem-4-carboxylate]	–	–	–	–	–	–	–	–	–	–	–	–	< 0.625 mg/kg	–
Nc1nc(CC(=O)NC2C(=O)N3C(C(=O)O)=C(CSc4nnc(NCCS(=O)(=O)O)s4)CSC23)cs1 (centres unmarked) [Compound 22]	–	≤ 0.2 µg/mL	25 µg/mL (≈ 42.1 µM)	≤ 0.2 µg/mL	0.78 µg/mL (≈ 1.31 µM)	≤ 0.2 µg/mL	–	0.78 µg/mL (≈ 1.31 µM)	0.78 µg/mL (≈ 1.31 µM)	–	3.13 µg/mL (≈ 5.27 µM)	–	–	–
CC(=O)CSc1nnc(SCC2=C(C(=O)O)N3C(=O)C(NC(=O)Cc4csc(N)n4)C3SC2)s1 (centres unmarked) [Compound 23]	3.13 µg/mL (≈ 5.6 µM)	≤ 0.2 µg/mL	25 µg/mL (≈ 44.7 µM)	0.39 µg/mL (≈ 0.698 µM)	≤ 0.2 µg/mL	0.39 µg/mL (≈ 0.698 µM)	0.78 µg/mL (≈ 1.4 µM)	–	–	–	–	–	–	1.56 µg/mL (≈ 2.79 µM)
CSCc1nnc(SCC2=C(C(=O)O)N3C(=O)C(NC(=O)Cc4csc(N)n4)C3SC2)s1 (centres unmarked) [Compound 24]	25 µg/mL (≈ 47.1 µM)	≤ 0.2 µg/mL	25 µg/mL (≈ 47.1 µM)	0.39 µg/mL (≈ 0.735 µM)	≤ 0.2 µg/mL	0.39 µg/mL (≈ 0.735 µM)	0.78 µg/mL (≈ 1.47 µM)	–	–	–	–	–	–	1.56 µg/mL (≈ 2.94 µM)
CS(=O)(=O)Cc1nnc(SCC2=C(C(=O)O)N3C(=O)C(NC(=O)Cc4csc(N)n4)C3SC2)s1 (centres unmarked) [Compound 25]	25 µg/mL (≈ 44.4 µM)	≤ 0.2 µg/mL	100 µg/mL (≈ 178 µM)	0.39 µg/mL (≈ 0.693 µM)	0.39 µg/mL (≈ 0.693 µM)	≤ 0.2 µg/mL	0.78 µg/mL (≈ 1.39 µM)	0.39 µg/mL (≈ 0.693 µM)	–	–	–	–	–	–
CN(C)CCn1nnnc1SCC1=C(C(=O)O)N2C(=O)C(NC(=O)Cc3csc(N)n3)C2SC1 (centres unmarked) [Compound 28]	–	≤ 0.2 µg/mL	3.13 µg/mL (≈ 5.95 µM)	0.78 µg/mL (≈ 1.48 µM)	0.39 µg/mL (≈ 0.742 µM)	≤ 0.2 µg/mL	1.56 µg/mL (≈ 2.97 µM)	0.39 µg/mL (≈ 0.742 µM)	≤ 0.2 µg/mL	–	–	–	–	–
NC(=O)Cn1nnnc1SCC1=C(C(=O)O)N2C(=O)C(NC(=O)Cc3csc(N)n3)C2SC1 (centres unmarked) [Compound 29]	–	≤ 0.2 µg/mL	3.13 µg/mL (≈ 6.12 µM)	≤ 0.2 µg/mL	0.78 µg/mL (≈ 1.52 µM)	≤ 0.2 µg/mL	1.56 µg/mL (≈ 3.05 µM)	0.39 µg/mL (≈ 0.762 µM)	≤ 0.2 µg/mL	–	–	–	–	–
Nc1nc(CC(=O)NC2C(=O)N3C(C(=O)O)=C(CSc4nc(CC(=O)O)cs4)CSC23)cs1 (centres unmarked) [Compound 30]	50 µg/mL (≈ 94.8 µM)	< 0.05 µg/mL	100 µg/mL (≈ 190 µM)	0.2 µg/mL (≈ 0.379 µM)	0.39 µg/mL (≈ 0.739 µM)	0.39 µg/mL (≈ 0.739 µM)	1.56 µg/mL (≈ 2.96 µM)	–	–	–	–	–	–	1.56 µg/mL (≈ 2.96 µM)
